Experimental data as given in US4558142A, “7-Fluoro-prostacyclin analogs” (Hoffmann-La Roche Inc., priority 1982, dated 1985).

Test system: platelet aggregation
Experiment: inhibition of arachidonic acid-induced platelet aggregation in beagle platelet rich plasma (PRP), light transmission
Format: cell-based
Details: Canis lupus familiaris, arachidonic acid inducer, 37°
Protocol: That the prostacyclins of formulas I-A and I-B of this invention are active as anti-blood platelet aggregating agents can be seen from the administration of (5Z,7β,9α,11α,13E,15R)-7-fluoro-6,9-epoxy-11,15-dihydroxy-16,16-dimethyl-prosta-5,13-dien-1-oic acid methyl ester by the following test.
30 Ml. of blood was drawn from the jugular vein of a conscious beagle using two 15 ml. Vacutainer tubes, with no additive, connected to a 20 g. 1 inch multiple sample needle. The blood was immediately transferred to a 50 ml. conical plastic centrifuge tube containing 3 ml. of 3.8% sodium citrate (3.8 grams of sodium citrate crystal, Na3 C6 H5 O7.2H2 O, in 100 ml. of distilled water), capped and gently mixed. The citrated blood was centrifuged at 160 g. for 15 minutes at 20° C. The platelet rich plasma (PRP) was carefully withdrawn with a pipette, without disturbing the buffy coat and erythrocyte layers. The PRP was placed in 16×125 mm plastic tubes, capped and stored at room temperature 19°-21° C. PRP preparations showing a tinge of redness, indicative of hemolysis, were discarded. The remaining blood, after the removal of PRP, was recentrifuged at higher speed, 900 g. for 10 minutes, to yield platelet poor plasma (PPP). The PRP was used immediately and the aggregation study completed within three hours after preparation.
Platelet aggregation was measured with a Payton duel channel aggregation module connected to a duel pen recorder for the continuous recording of the increase in light transmission due to clumping of platelets. The 0-100% transmission scale was set with PRP (0%) and PPP (100%). The temperature was set at 37° and the stirring speed at 900 rpm. 0.45 Ml. of PRP was added to a cuvette containing a teflon coating stirring bar and prewarmed at 37° in a water bath. 5 μl of various concentrations of (5Z,7β,9α,11α,13E,15R)-7-fluoro-6,9-epoxy-11,15-dihydroxy-16,16-dimethyl-prosta-5,13-dien-1-oic acid methyl ester, diluted from a stock solution of 5×10^-4 M in DMSO (dimethylsulfoxide) with phosphate buffered saline containing 1 mg/ml. of bovine serum albumin, fraction V, was added and stirred for 1 minute. The inducer of aggregation, arachidonic acid, at a concentration which will cause 50-70% aggregation after 5 minutes, was then added in 50 μl of solution. The % inhibition, set forth in the following Table, was calculated from the ratio of the % aggregation with (5Z,7β,9α,11α,13E,15R)-7-fluoro-6,9-epoxy-11,15-dihydroxy-16,16-dimethyl-prosta-5,13-dien-1-oic acid methyl ester over that with the vehicle×100.
The preparation of phosphate buffered saline and arachidonic acid solution used above is as follows: Phosphate buffered saline (PBS) was prepared by adding 1 mM solution of sodium phosphate aqueous buffer, pH 7.4 to 0.85% by weight/volume of an aqueous sodium chloride solution. Arachidonic acid solution was prepared as follows: A stock solution of 10 mg. per ml. in absolute ETOH was prepared and stored in freezer. To make a 10 mM solution, 0.3 ml. of the stock solution was evaporated to near dryness under nitrogen and redissolved in 0.75 ml. of 0.02NH4 OH (freshly prepared) and 0.2 ml. of PBS. Further dilutions of arachidonic acid were made with NH4 OH and PBS mixture.

## CCCCC(C)(C)[C@H](O)/C=C/[C@@H]1[C@@H]2[C@H](C[C@H]1O)O/C(=C\CCCC(=O)OC)[C@H]2F [(5Z,7β,9α,11α,13E,15R)-7-fluoro-6,9-epoxy-11,15-dihydroxy-16,16-dimethyl-prosta-5,13-dien-1-oic acid methyl ester]
Concentration 1 × 10^-10 M
  inhibition at 0.0001 µM: 20.8%
Concentration 1 × 10^-11 M
  inhibition at 10 pM: 57.8%
Concentration 1 × 10^-12 M
  inhibition at 1 pM: 71.4%
Concentration 1 × 10^-13 M
  inhibition at 100 fM: 14.2%
Concentration 3 × 10^-13 M
  inhibition at 300 fM: 20.8%
